Experimental findings from patent US20210253557A1, “SUBSTITUTED TRIAZOLE DERIVATIVES AND USES THEREOF” (Bayer Pharma Aktiengesellschaft, priority 2017, published 2021) are described below.

Molecules are shown by their SMILES.

One experiment has as its target T1, human V2 receptor (Homo sapiens, UniProt P30518).
T1 construct: expressed in transfected cells; host or cells: CHO K1 (ATCC) expressing firefly luciferase under a CRE-responsive promoter
In words: Cellular in vitro assay for determining vasopressin receptor activity (V2, CRE-luciferase). Type of experiment: cell-based. As to conditions: CHO cell line transfected with the human V2 receptor; [Arg8]-vasopressin at EC50 concentration; read-out: IC50 hV2. In a few lines:
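CHO K1 cells stably expressing the human V2 receptor and a CRE-driven firefly luciferase were plated the day before in DMEM/F12 with 2% FCS. Test compounds were added together with [Arg8]-vasopressin at its EC50 and incubated 3 h at 37 °C. Luciferase luminescence was read after Triton lysis and luciferin addition, giving IC50 values.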

In the next experiment the target is T2, human V1a receptor (Homo sapiens, UniProt P37288).
T2 construct: expressed in transfected cells; host or cells: CHO K1 (ATCC), also stably transfected with a modified aequorin
In words: Cellular in vitro assay for determining vasopressin receptor activity (V1a, aequorin luminescence). The experiment is classed as cell-based. To be noted: for IC50: CHO cell line transfected with the human V1a receptor, [Arg8]-vasopressin at EC50 concentration, read-out: IC50 hV1a; for ratio IC50 hV2/hV1a: selectivity ratio of IC50 hV2 to IC50 hV1a.

T2 sequence (P37288 whole entry): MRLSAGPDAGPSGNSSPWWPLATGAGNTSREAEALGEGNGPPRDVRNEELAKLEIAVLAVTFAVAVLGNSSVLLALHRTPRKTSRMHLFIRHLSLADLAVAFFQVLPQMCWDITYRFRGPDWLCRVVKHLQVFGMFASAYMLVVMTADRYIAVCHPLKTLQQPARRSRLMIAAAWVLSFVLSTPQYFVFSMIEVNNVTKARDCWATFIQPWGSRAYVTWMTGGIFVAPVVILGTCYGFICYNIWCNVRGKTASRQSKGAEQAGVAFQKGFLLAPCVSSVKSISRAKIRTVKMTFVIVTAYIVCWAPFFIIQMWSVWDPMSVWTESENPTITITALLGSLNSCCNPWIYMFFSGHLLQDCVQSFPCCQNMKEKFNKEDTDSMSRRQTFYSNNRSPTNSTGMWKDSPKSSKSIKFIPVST
T1 sequence (P30518 whole entry): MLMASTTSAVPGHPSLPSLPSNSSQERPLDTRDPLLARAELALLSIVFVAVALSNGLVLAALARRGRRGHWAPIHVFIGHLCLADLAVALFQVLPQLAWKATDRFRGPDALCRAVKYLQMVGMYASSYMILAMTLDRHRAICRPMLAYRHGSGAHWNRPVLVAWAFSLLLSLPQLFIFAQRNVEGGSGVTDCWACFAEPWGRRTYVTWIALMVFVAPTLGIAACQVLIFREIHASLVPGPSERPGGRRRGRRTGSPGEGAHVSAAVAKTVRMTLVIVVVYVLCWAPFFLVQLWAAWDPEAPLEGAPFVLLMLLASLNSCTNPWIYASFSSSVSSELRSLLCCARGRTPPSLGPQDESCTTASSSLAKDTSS

The IC50 is the point on the concentration scale where inhibition reaches its midpoint. As for `C[C@@H](OC(N)=O)c1nc(Cn2nc(-c3ccc(Cl)cc3)n(C[C@H](O)C(F)(F)F)c2=O)nn1-c1c(Cl)cncc1Cl` [Example 20, (1R)-1-[3-({3-(4-Chlorophenyl)-5-oxo-4-[(2S)-3,3,3-trifluoro-2-hydroxypropyl]-4,5-dihydro-1H-1,2,4-triazol-1-yl}methyl)-1-(3,5-dichloropyridin-4-yl)-1H-1,2,4-triazol-5-yl]ethyl Carbamate], on human V2 receptor, the IC50 was found to be 52 nM. Further, on human V1a receptor, the IC50 is 3.3 nM and the “ratio IC50 hV2/hV1a” value is 15.8.
For `C[C@H](OC(N)=O)c1nc(Cn2nc(-c3ccc(Cl)cc3)n(C[C@H](O)C(F)(F)F)c2=O)nn1-c1cnccc1Cl` [Example 21, (1S)-1-[3-({3-(4-Chlorophenyl)-5-oxo-4-[(2S)-3,3,3-trifluoro-2-hydroxypropyl]-4,5-dihydro-1H-1,2,4-triazol-1-yl}methyl)-1-(4-chloropyridin-3-yl)-1H-1,2,4-triazol-5-yl]ethyl Carbamate] the same measures were 17.5 nM, 1.9 nM and 9.2.
In the case of `C[C@H](OC(N)=O)c1nc(Cn2nc(-c3ccc(Cl)cc3)n(C[C@H](O)C(F)(F)F)c2=O)nn1-c1ncccc1OC(F)(F)F` [Example 22, (1S)-1-{3-({3-(4-Chlorophenyl)-5-oxo-4-[(2S)-3,3,3-trifluoro-2-hydroxypropyl]-4,5-dihydro-1H-1,2,4-triazol-1-yl}methyl)-1-[3-(trifluoromethoxy)pyridin-2-yl]-1H-1,2,4-triazol-5-yl}ethyl Carbamate], the results for the concentration for half-maximal inhibition (IC50) on human V2 receptor and on human V1a receptor were 144 nM and 9.95 nM, respectively. Moreover, the “ratio IC50 hV2/hV1a” value on human V1a receptor was determined as 14.4.
Consider `C[C@@H](OC(N)=O)c1nc(Cn2nc(-c3ccc(Cl)cc3)n(C[C@H](O)C(F)(F)F)c2=O)nn1-c1ncccc1OC(F)(F)F` [Example 23, (1R)-1-{3-({3-(4-Chlorophenyl)-5-oxo-4-[(2S)-3,3,3-trifluoro-2-hydroxypropyl]-4,5-dihydro-1H-1,2,4-triazol-1-yl}methyl)-1-[3-(trifluoromethoxy)pyridin-2-yl]-1H-1,2,4-triazol-5-yl}ethyl Carbamate], for which, at human V2 receptor, the IC50 was 285 nM. At human V1a receptor, the IC50 was 5.4 nM and the “ratio IC50 hV2/hV1a” value is recorded as 52.8.
With `NC(=O)OCc1nc(Cn2nc(-c3ccc(Cl)cc3)n(C[C@H](O)C(F)(F)F)c2=O)nn1-c1cccc(Cl)c1` [Example 24, [1-(3-Chlorophenyl)-3-({3-(4-chlorophenyl)-5-oxo-4-[(2S)-3,3,3-trifluoro-2-hydroxypropyl]-4,5-dihydro-1H-1,2,4-triazol-1-yl}methyl)-1H-1,2,4-triazol-5-yl]methyl Carbamate], on human V2 receptor, the IC50 turned out to be 5.29 nM. Moreover, on human V1a receptor, the IC50 worked out at 25.9 nM and the “ratio IC50 hV2/hV1a” value came out at 0.2.
For the compound `NC(=O)OCc1nc(Cn2nc(-c3ccc(Cl)cc3)n(C[C@H](OC(N)=O)C(F)(F)F)c2=O)nn1-c1cccc(Cl)c1` [Example 25, (2S)-3-[1-({5-[(Carbamoyloxy)methyl]-1-(3-chlorophenyl)-1H-1,2,4-triazol-3-yl}methyl)-3-(4-chlorophenyl)-5-oxo-1,5-dihydro-4H-1,2,4-triazol-4-yl]-1,1,1-trifluoropropan-2-yl Carbamate], at human V2 receptor, the IC50 was 2.26 nM. Besides, at human V1a receptor, the IC50 amounted to 26.6 nM and the “ratio IC50 hV2/hV1a” value is 0.1.
For `NC(=O)OCc1nc(Cn2nc(-c3ccc(Cl)cc3)n(C[C@H](O)C(F)(F)F)c2=O)nn1-c1cccc(F)c1` [Example 26, [3-({3-(4-Chlorophenyl)-5-oxo-4-[(2S)-3,3,3-trifluoro-2-hydroxypropyl]-4,5-dihydro-1H-1,2,4-triazol-1-yl}methyl)-1-(3-fluorophenyl)-1H-1,2,4-triazol-5-yl]methyl Carbamate], in that order: 4.82 nM, 5.29 nM and 0.9.
For `COc1ccccc1-n1nc(Cn2nc(-c3ccc(Cl)cc3)n(C[C@H](O)C(F)(F)F)c2=O)nc1COC(N)=O` [Example 27, [3-({3-(4-Chlorophenyl)-5-oxo-4-[(2S)-3,3,3-trifluoro-2-hydroxypropyl]-4,5-dihydro-1H-1,2,4-triazol-1-yl}methyl)-1-(2-methoxyphenyl)-1H-1,2,4-triazol-5-yl]methyl Carbamate], in that order: 3.11 nM, 1.78 nM and 1.8.
For `NC(=O)OCc1nc(Cn2nc(-c3ccc(Cl)cc3)n(C[C@H](O)C(F)(F)F)c2=O)nn1-c1ccccc1Cl` [Example 28, [1-(2-Chlorophenyl)-3-({3-(4-chlorophenyl)-5-oxo-4-[(2S)-3,3,3-trifluoro-2-hydroxypropyl]-4,5-dihydro-1H-1,2,4-triazol-1-yl}methyl)-1H-1,2,4-triazol-5-yl]methyl Carbamate] the same measures were 2.57 nM, 0.43 nM and 6.0.
Consider `NC(=O)OCc1nc(Cn2nc(-c3ccc(Cl)cc3)n(C[C@H](OC(N)=O)C(F)(F)F)c2=O)nn1-c1ccccc1Cl` [Example 29, (2S)-3-[1-({5-[(Carbamoyloxy)methyl]-1-(2-chlorophenyl)-1H-1,2,4-triazol-3-yl}methyl)-3-(4-chlorophenyl)-5-oxo-1,5-dihydro-4H-1,2,4-triazol-4-yl]-1,1,1-trifluoropropan-2-yl Carbamate], for which the IC50 on human V2 receptor was 2.93 nM. Further, on human V1a receptor, the half-inhibitory concentration (IC50) amounted to 1.29 nM and the “ratio IC50 hV2/hV1a” value is on record as 2.3.
In the case of `C[C@H](OC(N)=O)c1nc(Cn2nc(-c3ccc(Cl)cc3)n(C[C@H](O)C(F)(F)F)c2=O)nn1-c1cccc(F)c1` [Example 30, (1S)-1-[3-({3-(4-Chlorophenyl)-5-oxo-4-[(2S)-3,3,3-trifluoro-2-hydroxypropyl]-4,5-dihydro-1H-1,2,4-triazol-1-yl}methyl)-1-(3-fluorophenyl)-1H-1,2,4-triazol-5-yl]ethyl Carbamate], at human V2 receptor, the IC50 turned out to be 3.81 nM. In addition, at human V1a receptor, the half-inhibitory concentration (IC50) turned out to be 36.6 nM and the “ratio IC50 hV2/hV1a” value turned out to be 0.1.
Regarding `C[C@@H](OC(N)=O)c1nc(Cn2nc(-c3ccc(Cl)cc3)n(C[C@H](O)C(F)(F)F)c2=O)nn1-c1ccccc1Cl` [Example 31, (1R)-1-[1-(2-Chlorophenyl)-3-({3-(4-chlorophenyl)-5-oxo-4-[(2S)-3,3,3-trifluoro-2-hydroxypropyl]-4,5-dihydro-1H-1,2,4-triazol-1-yl}methyl)-1H-1,2,4-triazol-5-yl]ethyl Carbamate], at human V2 receptor, the IC50 came out at 7.42 nM. On human V1a receptor, the IC50 amounted to 0.94 nM and the “ratio IC50 hV2/hV1a” value is 7.9.
For the compound `C[C@@H](OC(N)=O)c1nc(Cn2nc(-c3ccc(Cl)cc3)n(C[C@H](OC(N)=O)C(F)(F)F)c2=O)nn1-c1ccccc1Cl` [Example 32, (2S)-3-[1-({5-[(1R)-1-(Carbamoyloxy)ethyl]-1-(2-chlorophenyl)-1H-1,2,4-triazol-3-yl}methyl)-3-(4-chlorophenyl)-5-oxo-1,5-dihydro-4H-1,2,4-triazol-4-yl]-1,1,1-trifluoropropan-2-yl Carbamate], the results for the IC50 on human V2 receptor and at human V1a receptor were 10.3 nM and 0.51 nM, respectively. Further, the “ratio IC50 hV2/hV1a” value at human V1a receptor was determined as 20.3.
For `C[C@H](OC(N)=O)c1nc(Cn2nc(-c3ccc(Cl)cc3)n(C[C@H](O)C(F)(F)F)c2=O)nn1-c1ccccc1Cl` [Example 33, (1S)-1-[1-(2-Chlorophenyl)-3-({3-(4-chlorophenyl)-5-oxo-4-[(2S)-3,3,3-trifluoro-2-hydroxypropyl]-4,5-dihydro-1H-1,2,4-triazol-1-yl}methyl)-1H-1,2,4-triazol-5-yl]ethyl Carbamate] the same measures were 3.63 nM, 0.99 nM and 3.7.
`C[C@H](OC(N)=O)c1nc(Cn2nc(-c3ccc(Cl)cc3)n(C[C@H](OC(N)=O)C(F)(F)F)c2=O)nn1-c1ccccc1Cl` [Example 34, (2S)-3-[1-({5-[(1S)-1-(Carbamoyloxy)ethyl]-1-(2-chlorophenyl)-1H-1,2,4-triazol-3-yl}methyl)-3-(4-chlorophenyl)-5-oxo-1,5-dihydro-4H-1,2,4-triazol-4-yl]-1,1,1-trifluoropropan-2-yl Carbamate]: the IC50 on human V2 receptor is 2.75 nM. For the same compound, at human V1a receptor, the IC50 stood at 0.64 nM and the “ratio IC50 hV2/hV1a” value is on record as 4.3.
With `C[C@H](OC(N)=O)c1nc(Cn2nc(-c3ccc(Cl)cc3)n(C[C@H](O)C(F)(F)F)c2=O)nn1-c1cccc(Cl)c1` [Example 35, (1S)-1-[1-(3-Chlorophenyl)-3-({3-(4-chlorophenyl)-5-oxo-4-[(2S)-3,3,3-trifluoro-2-hydroxypropyl]-4,5-dihydro-1H-1,2,4-triazol-1-yl}methyl)-1H-1,2,4-triazol-5-yl]ethyl Carbamate], the half-inhibitory concentration (IC50) at human V2 receptor was found to be 1.99 nM; at human V1a receptor, 41.4 nM.
`C[C@@H](OC(N)=O)c1nc(Cn2nc(-c3ccc(Cl)cc3)n(C[C@H](O)C(F)(F)F)c2=O)nn1-c1cccc(Cl)c1` [Example 36, (1R)-1-[1-(3-Chlorophenyl)-3-({3-(4-chlorophenyl)-5-oxo-4-[(2S)-3,3,3-trifluoro-2-hydroxypropyl]-4,5-dihydro-1H-1,2,4-triazol-1-yl}methyl)-1H-1,2,4-triazol-5-yl]ethyl Carbamate]: the IC50 is 1.81 nM at human V2 receptor and 28.6 nM at human V1a receptor. Further, the “ratio IC50 hV2/hV1a” value at human V1a receptor was 0.1.
Take `Cc1ccccc1-n1nc(Cn2nc(-c3ccc(Cl)cc3)n(C[C@H](O)C(F)(F)F)c2=O)nc1COC(N)=O` [Example 37, [3-({3-(4-Chlorophenyl)-5-oxo-4-[(2S)-3,3,3-trifluoro-2-hydroxypropyl]-4,5-dihydro-1H-1,2,4-triazol-1-yl}methyl)-1-(2-methylphenyl)-1H-1,2,4-triazol-5-yl]methyl Carbamate]: the IC50 on human V2 receptor was found to be 6.62 nM. For the same compound, at human V1a receptor, the IC50 came out at 0.77 nM and the “ratio IC50 hV2/hV1a” value was 8.6.
